Assay: MRI of mice after tail vein injection, maximum pixel intensity of the kidney
Assay type: in vivo, mouse
Procedure: FIG. 2A-2B. MRI of a mouse injected with Magnevist® (gadopentetate dimeglumine) (A) and a mouse injected with nanoparticles loaded with gadopentetate dimeglumine (B). The left images are pre-injection, center images are 4 hours post injection, and right images are 24 hours post injection. […] A study was conducted to address the efficacy with which CA-loaded particles can provide MRI images. MRI images of mice were acquired pre-injection. Subsequently mice were injected (via the tail vein) with one of the following: i) a suspension of empty nanoparticles; ii) a suspension of nanoparticles loaded with Magnevist® (gadopentetate dimeglumine, a commercial Gd based MRI contrast reagent); and iii) Magnevist® solution. Mice were then imaged immediately after injection of each of these materials and again at 2 hours, 4 hours and 24 hours post injection. Maximum pixel intensity of the kidney was measured (relative to the background) at each time point using ImageJ software.

SMILES: CNC[C@H](O)[C@@H](O)[C@H](O)[C@H](O)CO.CNC[C@H](O)[C@@H](O)[C@H](O)[C@H](O)CO.O=C([O-])CN(CCN(CC(=O)[O-])CC(=O)O)CCN(CC(=O)[O-])CC(=O)O.[Gd+3] [Magnevist®, gadopentetate dimeglumine]
- increase of maximum pixel intensity of the kidney (4 hours post-injection, tail vein, one mouse each): 32%
- signal intensity throughout the GI tract (24 hour time point): not observed
- MRI contrast (FIG. 2) (24 hours post-injection): returned to pre-injection levels
- change of maximum pixel intensity of the kidney (24 hours post-injection, additional increase over 4 hours): returned to pre-injection levels

— US20120213697A1, “VERSATILE NANOPARTICULATE BIOMATERIAL FOR CONTROLLED DELIVERY AND/OR CONTAINMENT OF THERAPEUTIC AND DIAGNOSTIC MATERIAL” (Albert Einstein College of Medicine of Yeshiva University, priority 2009, published 2012)
